Non-standard residues stand in square brackets, D forms with d. No end group written: not given here. o‑nitrobenzyl photocleavable linker = o-nitrobenzyl photocleavable moiety placed between the 8R peptide and the amyloidogenic sequence; Alexa568 = Alexa568 fluorophore linked to the cysteine residue
Tests used:
[1] = Transmission electron microscopy (vesicle size, fibril formation); format: physicochemical; settings: upon illumination 335-379 nm, 8.24 mW/cm^2, 3 mins
Procedure: Transmission Electron Microscopy
The resulting aliquots of peptide solutions (5 μL) were applied on glow-charged 300 mesh formvar- and carbon-coated copper grids stained with 1% uranyl acetate. After drying overnight, all samples were analyzed using a JEM-2011 electron microscope (JEOL, Japan).

EGFP-TDP-43 in N2A cells [2] = experiment: EGFP-TDP-43 aggregation / co-localization in JHR2-treated N2A cells (confocal); format: cell-based, mouse
Procedure: (§1) Cell Maintenance, Peptide Treatment, and Photolysis
(§2) Mouse neuroblastoma N2A cells (generous gift from Dr. Yijuang Chern, IBMS, Academia Sinica) were cultured in Dulbecco's modified Eagle's medium (DMEM) (Invitrogen) supplemented with 2 mM glutamine, 10% heat-inactivated fetal bovine serum and 100 U/mL penicillin-streptomycin (Invitrogen) at 37° C. in a humidified atmosphere with 5% CO2. Before peptide incubation, cells were treated with 5-aminoimidazole-4-carboxamide-1-β-D-ribofuranoside (AICAR) to induce the cytoplasmic mislocalization of TDP-43. JHR2 was prepared by dissolving the lyophilized powder in the cell culture medium. Cells were incubated with polypeptide-containing medium for 3 hr, washed, and UV-illuminated (mercury lamp with 345-385 nm bandpass filter, average power: 8.24 mW/cm^2).
Confocal and Super-Resolution Fluorescence Microscopy with Airy Scan
(§3) For EGFP-TDP-43 expression, 2×10^5 of N2A cells in a 30-mm square coverslip were transfected with 1 μg of full-length TDP-43-EGFP plasmid with TurboFect Transfection Reagent (Thermo Scientific) according to the manufacturer's protocol. After peptide and photolysis treatment as described above, cells were incubated for an additional 24 hr and then fixed with 4 paraformaldehyde. Confocal images were captured with LSM 880 and super resolution imaging was performed with Airy Scan (Zeiss, Germany). […]

[3] = test system: Ran (RAS-related nuclear protein); experiment: Localization of endogenous Ran in JHR2-treated cells; format: cell-based
Procedure: as §2
For EGFP-TDP-43 expression, 2×10^5 of N2A cells in a 30-mm square coverslip were transfected with 1 μg of full-length TDP-43-EGFP plasmid with TurboFect Transfection Reagent (Thermo Scientific) according to the manufacturer's protocol. After peptide and photolysis treatment as described above, cells were incubated for an additional 24 hr and then fixed with 4 paraformaldehyde. Confocal images were captured with LSM 880 and super resolution imaging was performed with Airy Scan (Zeiss, Germany). For immunostaining, anti-TDP-43 antibody (Abcam, ab104223) and anti-Ran (Abcam, ab155103) antibody were used, respectively.

EGFP-TDP-43 in N2A cells [4] = experiment: Microinjection of probe into N2A cells and irradiation; format: cell-based, mouse; settings: N2A cells microinjected, data not shown
Excerpt: The glass microneedles for microinjection (1B100-F4, World Precision Instruments, USA) were pulled with a PC-10 capillary puller (Narishige, Japan). […] A Picospriterzer III microinjection system and a joystick micromanipulator (Narishige, Japan) mounted with a stage-side of a microscope (IX-71, Olympus, Japan) were used for delivering the peptide solution into the cytosol of N2A cells. After microinjection (injection pressure, 80 hPa; injection time, 100 msec; compensation pressure, 20 hPa), cells were subsequently rinsed with 2 mL of L-15 medium supplemented with 10% FBS for 1 hr of recovery.

TDP-43 and importin-α1 = experiment: Localization of endogenous TDP-43 and importin-α1 in JHR2-treated cells; format: cell-based
[5] = test system: endogenous TDP-43 in N2A cells; experiment: Endogenous TDP-43 aggregates in N2A cells (immunostaining, high content analysis); format: cell-based, mouse; settings: pinhole-confined UV light spot, 24 hr incubation
Procedure: as §1, §2, §3

EGFP-TDP-43 in N2A cells [6] = experiment: Time-lapse living cell fluorescence microscopy and Annexin V staining; format: cell-based, mouse
Procedure: Time-lapse Living Fluorescence Cell Microscopy and Annexin V Staining
N2A cells (5×10^4) were transfected with 1 μg of full-length TDP-43-EGFP in a sterilized 35 mm μ-Dish (Ibidi, Martinsried, Germany). The living cells were imaged with a Nikon TiE inverted microscope equipped with a Tokai-hit constant humidity chamber (37° C., 5% CO2) for 25 hr. Hoechst, EGFP, Aleax Fluor 568 and Cy5 cube filters were used to collect the fluorescence emission accordingly. Cellular images were captured with an Andor iXon3 888 back-illuminated high sensitivity EMCCD camera. Images were analyzed and quantified using Nikon NIS element software. After 24 hr of peptide treatment, the cells were washed twice with PBS, washed once with 1× Annexin V binding buffer, incubated with Annexin V-Cy5 (BioVision, USA) at room temperature and imaged.

In the case of “JHR2: Same peptide probe as JHR1 with Alexa568 fluorophore linked to the cysteine residue instead of tert-butyl thiol (RRRRRRRR[o‑nitrobenzyl photocleavable linker]MGGGMNFGAFSINPAMC(Alexa568)-NH2)”, the “time to detection of massive fibrils (TEM)” value [1] is reported as at most 4 h, the “aggregates of JHR2 and EGFP-TDP-43 after irradiation” value (EGFP-TDP-43 in N2A cells [2]; AICAR pretreated, 24 hrs after non-focused light 335-379 nm, 8.24 mW/cm^2, 3 mins) is reported as “developed pronounced aggregates and/or inclusion bodies that were largely co-localized in the cytosol” and the cell penetration (EGFP-TDP-43 in N2A cells [2]; JHR2 1 μM, 3 hr) is reported as “may quickly penetrate cells”. The “Ran protein miss-localized into the cytoplasm” value ([3]; +JHR2+Light) was over 90%, the “Ran localization, probe-treated only (no light)” value ([3]; +JHR2−Light) was “mainly resided in the nucleus” and the “onset of EGFP-TDP43 aggregation after microinjection and irradiation” value (EGFP-TDP-43 in N2A cells [4]) was 4 h. The “onset of clustering of JHR2 after microinjection and irradiation” value (EGFP-TDP-43 in N2A cells [4]) was 2 h, the “TDP-43 and importin-α1 localization under photoactivation” value (TDP-43 and importin-α1; +JHR2+Light) was “translocated from the nucleus to cytosol and formed aggregates” and the “importin-α1 localization, probe-treated only (no light)” value (TDP-43 and importin-α1; +JHR2−Light) was “mainly remained in the nucleus”. The “seeding of endogenous TDP-43 cytosolic aggregation within confined illuminated area” value [5] was “selectively induced the JHR2 amyloid to “seed” endogenous TDP-43 cytosolic aggregation”, the “time at which EGFP-TDP-43 puncta became detectable” value (EGFP-TDP-43 in N2A cells [6]; N2A cells expressing EGFP-TDP-43, with JHR2, after illumination) was “Twenty hours after illumination, the EGFP-TDP-43 puncta became detectable” and the “apoptosis by Annexin V staining” value (EGFP-TDP-43 in N2A cells [6]; N2A cells with EGFP-TDP-43 inclusion bodies, end of time course 25 hr) was “on the verge of apoptosis”.
